# Literature values as cited in patent US8735422B2, “Cationic pharmaceutically active ingredient containing composition, and methods for manufacturing and using” (Skinvisible Pharmaceuticals, Inc., priority 2009, dated 2014).
# Read-outs that look alike come from different tables or passages of the source.
# Columns and labels:
# [1] = in vivo
# [2] = Table 4, value used for the calculation
Molecule,pK1 (Table 1),other results
CC(=O)O [Acetic Acid],4.76,
O=C(O)c1ccccc1 [Benzoic Acid],4.21,
O=C(O)CCCCCCCCCCC(=O)O [Dodecandioic],4.5,pK2 (Table 1): 4.5
O=C(O)[C@H](O)[C@@H](O)[C@H](O)[C@H](O)CO [Gluconic Acid],3.86,
"CC(C)Cn1cnc2c(N)nc3ccccc3c21 [Imiquimod, reference compound]",,pK [2]: 4.49
CCCCCCCCCCCC(=O)O [Lauric Acid],5.3,pK: 5.3; pK [2]: 5.30
CCCCCCCCCCCCCCCCCC(=O)O [Stearic Acid],7.0,
Poly(vinylpyrrolidone/1-eicosene) [PVPE],,dermal toxicity [1]: no demonstrable dermal toxicity
Poly(vinylpyrrolidone/1-hexadecene) [PVPH],,dermal toxicity [1]: no demonstrable dermal toxicity
